Measurements as given in patent US8735141B2, “Vermiculture compositions” (M-I L.L.C., priority 2001, dated 2014).

Legend:
[1] = Biodegradability (respiration rate and hydrocarbon loss in a reference moist soil); conditions: base fluids, 1 = most biodegradable
Experimental: (§1) Environmental tests were carried out on the base fluids, several muds, and a few samples of mud-coated cuttings before and after treatment in a bioreactor. The tests consisted of the following: (a) biodegradability (respiration rate and hydrocarbon loss in a reference moist soil); (b) phytoxicity (alfalfa seed emergence and root elongation); (c) earthworm survival; (d) springtail survival; and (e) Microtox (IC-50 on bioluminescent bacterium Photobacterium phosporeum).
Biodegradability and toxicity of Formulations A and N are contrasted with those of typical diesel/CaCl2/barite fluid in Table 4. The leading rate on the test soil in Table 4 was 6% w/w. […] In comparing formulation A with a similar formulation weighted with barite (instead of hematite), biodegradability and toxicity appear to be similar for the two fluids. However, a soil-enhancing iron source is considered desirable for its long-term potential benefits.
Biodegradability (Respiration rate and hydrocarbon loss in moist soil.)

[2] = system: Earthworms (Esenia fetida); assay: Earthworm survival; assay type: in vivo; conditions: base fluids
Experimental: as §1
Earthworms (Esenia fetida) toxicity

alfalfa = assay: Alfalfa phytotoxicity (seed emergence, root elongation, shoot mass); assay type: in vivo; conditions: base fluids; normalized to Control test values of 100
Experimental: as §1
Alfalfa seed emergence and root elongation.

[3] = Toxicity of various base fluids, overall rank; conditions: 1 = least toxic
Experimental: as §1
One of skill in the art will appreciate that the results of Table 1 indicate that diesel and the branched paraffins are more resistant to rapid biodegradation than the other four fluids.

Biodegradability Rank [1]: 4
Substance: Isomerized tetradecene [Isomerized tetradecene C14 (IO)]
Animal Toxicity % Earthworm Survival [2]: 100%
Alfalfa Phytotoxicity % Root Elongation (alfalfa): 144%
Alfalfa Phytotoxicity % Seed Emergence (alfalfa): 101%
Toxicity Rank [3]: 4
